Experiments:
Type in all cases: cell-based
Human LPA1 [1] = target: T1, Human LPA1 (Homo sapiens, UniProt Q92633); experiment: LPA1 calcium flux assay; parameters: the full-length cDNA for human LPA1 is obtained by PCR of the reverse transcription reaction; expressed in transfected cells; conditions: human LPA1 expressing CHO cells, stimulated with 10 nM LPA; read-out: Ca Flux LPA1 IC50
Description: Establishment of a CHO Cell Line Stably Expressing Human LPA1
A 1.1 kb cDNA encoding the human LPA1 receptor is cloned from human lung. Human lung RNA (Clontech Laboratories, Inc. USA) is reverse transcribed using the RETROscript kit (Ambion, Inc.) and the full-length cDNA for human LPA1 is obtained by PCR of the reverse transcription reaction. The nucleotide sequence of the cloned human LPA1 is determined by sequencing and is confirmed to be identical to the published human LPA1 sequence (An et al. Biochem. Biophys. Res. Commun. 231:619 (1997). The cDNA is cloned into the pCDNA5 pcDNA5/FRT expression plasmid and is transfected in CHO cells using lipofectamine 2000 (Invitrogen Corp., USA). Clones stably expressing human LPA1 are selected using hygromycin and identified as cells that show Ca-influx in response to LPA.
LPA1 and LPA3 Calcium Flux Assays
Human LPA1 or LPA3 expressing CHO cells were seeded at 20,000-45,000 cells per well in a 96-well poly-D-lysine coated plate one or two days before the assay. Prior to the assay, the cells were washed once with PBS and then cultured in serum-free media overnight. On the day of the assay, a calcium indicator dye (Calcium 4, Molecular Devices) in assay buffer (HBSS with Ca^2+ and Mg^2+ and containing 20 mM Hepes and 0.3% fatty-acid free human serum albumin) was added to each well and incubation continued for 1 hour at 37° C. 10 μl of test compounds in 2.5% DMSO were added to the cells and incubation continued at room temperature for 30 minutes. Cells were then stimulated by the addition of 10 nM LPA and intracellular Ca^2+ measured using the Flexstation 3 (Molecular Devices). IC50, were determined using Graphpad prism analysis of drug titration curves.

[2] = tested on: primary fibroblasts (including lung, dermal), HFL-1, 3T3 and CHO cells expressing LPA1R; experiment: LPA1 migration assay (Oris cell migration); conditions: inhibition of cell migration in response to chemoattractant (LPA, serum)
Excerpt: Migration of primary fibroblasts (including lung, dermal), HFL-1, 3T3 and CHO cells expressing LPA1R were monitored using the Oris™ assay (Platypus Technologies, Madison, Wis.). These cells were dye (Cell Tracker Green™) loaded and serum starved for 12-24 hrs. In response to chemoattractants such as LPA and serum, the cells migrated inward in to the exclusion (detection) zone. After fixing, fluorescent cells in the detection zone were counted using a high content reader. The ability of LPA1 antagonists to inhibit cell migration is quantified by plotting cell number vs. compound concentration and curve fitting the resulting dose-response curve to a 4 parameter logistic function.

Human LPA1 [3] = target: T1, Human LPA1; experiment: Beta-Arrestin based assay for human LPA1R antagonists (PathHunter); conditions: CHO cells expressing ProLink tagged human LPA1R; antagonist mode, 0.5 micromolar LPA
Description: Beta-Arrestin Based Assays for Human LPA1R Antagonists and Agonists
A CHO cell line stably expressing the ProLink™ tagged human LPA1R was obtained from DiscoverX Inc, Fremont, Calif. In this system, β-Arrestin was fused to an N-terminal deletion mutant of β-galactosidase (termed the enzyme acceptor or EA), the human LPA1R was fused to a smaller (42 amino acids) weakly complementing fragment termed ProLink™. […] Cell handling and assays were performed according to protocols specified in the PathHunter® assays kits (DiscoverX, Fremont, Calif.). Assays were performed in quadruplicate in white 384 well plates. End point luminescence data were plotted and fit to a 4 parameter logistic function to obtain IC50 values. For antagonist assays, an […] concentration of agonist (LPA) equal to 0.5 micromolar was used.

T1 sequence (Q92633 whole entry): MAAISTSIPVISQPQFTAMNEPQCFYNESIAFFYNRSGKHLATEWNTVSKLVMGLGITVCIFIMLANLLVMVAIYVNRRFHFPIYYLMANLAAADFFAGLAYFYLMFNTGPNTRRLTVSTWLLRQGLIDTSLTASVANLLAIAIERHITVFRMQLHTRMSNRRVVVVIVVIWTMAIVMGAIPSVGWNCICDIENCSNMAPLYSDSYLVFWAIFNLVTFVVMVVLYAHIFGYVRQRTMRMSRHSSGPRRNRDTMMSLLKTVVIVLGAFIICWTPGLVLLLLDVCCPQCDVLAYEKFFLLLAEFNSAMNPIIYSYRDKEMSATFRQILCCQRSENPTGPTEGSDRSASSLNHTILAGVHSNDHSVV

Row | Compound | IC50 (Human LPA1 [1]) [nM] | EC50 [2] [nM] | EC50 (Human LPA1 [3]) [nM]
1 | Cc1noc(C#Cc2ccc3cc(C4(CC(=O)O)CC4)ccc3c2)c1NC(=O)O[C@H](C)c1ccccc1 [IT003] | < 50 | 50 to 500 | < 50
2 | Cc1noc(-c2ccc(-c3ccc(C4(CC(=O)O)CC4)cc3)cc2)c1NC(=O)O[C@H](C)c1ccccc1 [IT004] | < 50 | < 50 | < 50
3 | Cc1noc(-c2ccc(-c3ccc4c(C(=O)O)c[nH]c4c3)cc2)c1NC(=O)O[C@H](C)c1ccccc1 [IT009] | > 500 | > 500 | > 500
4 | Cc1noc(-c2ccc(-c3nc4ccc(C(=O)O)cc4s3)cc2)c1NC(=O)O[C@H](C)c1ccccc1 [IT010] | > 500 | > 500 | > 500
5 | C[C@@H](OC(=O)Nc1c(C#Cc2ccc3cc(C4(C(=O)O)CC4)ccc3c2)cnn1C)c1ccccc1 [IT014] | < 50 | 50 to 500 | < 50
6 | C[C@@H](OC(=O)Nc1c(C#Cc2ccc3cc(C4(C(=O)O)CC4)ccc3c2)cnn1C1CC1)c1ccccc1 [IT015] | 50 to 500 | 50 to 500 | < 50
7 | CCn1ncc(C#Cc2ccc3cc(C4(C(=O)O)CC4)ccc3c2)c1NC(=O)O[C@H](C)c1ccccc1 [IT016] | < 50 | 50 to 500 | < 50
8 | C[C@@H](OC(=O)Nc1c(C#Cc2cc3sc(C4(C(=O)O)CC4)cc3s2)cnn1C)c1ccccc1 [IT017] | < 50 | < 50 | < 50
9 | C[C@@H](OC(=O)Nc1c(-c2ccc(C#CC3(C(=O)O)CC3)cc2)cnn1C)c1ccccc1 [IT018] | > 500 | > 500 | > 500
10 | CC(=O)N1CCn2c(nc(-c3ccc(-c4ccc(C5(C(=O)O)CC5)cc4)cc3)c2NC(=O)O[C@H](C)c2ccccc2)C1 [IT020] | > 500 | > 500 | > 500
11 | C[C@@H](OC(=O)Nc1c(-c2ccc(-c3ccc(C4(C(=O)O)CC4)cc3)cc2)nc2n1CCN(S(C)(=O)=O)C2)c1ccccc1 [IT021] | > 500 | > 500 | > 500
12 | CNC(=O)N1CCn2c(nc(-c3ccc(-c4ccc(C5(C(=O)O)CC5)cc4)cc3)c2NC(=O)O[C@H](C)c2ccccc2)C1 [IT022] | > 500 | > 500 | > 500
13 | CCOC(=O)N1CCn2c(nc(-c3ccc(-c4ccc(C5(C(=O)O)CC5)cc4)cc3)c2NC(=O)O[C@H](C)c2ccccc2)C1 [IT023] | > 500 | > 500 | > 500
14 | Cc1nsc(-c2ccc(C34CCC(CC(=O)O)(CC3)CC4)cc2)c1NC(=O)O[C@H](C)c1ccccc1 [IT026] | > 500 | > 500 | > 500
15 | C[C@@H](OC(=O)Nc1c(-c2ccc(-c3ccc(C4(C(=O)O)CCOCC4)cc3)cc2)ncn1C)c1ccccc1 [IT027] | 50 to 500 | > 500 | 50 to 500
16 | Cc1noc(-c2ccc(-c3ccc(C4(C(=O)O)CCOCC4)cc3)c(F)c2)c1NC(=O)O[C@H](C)c1ccccc1 [IT028] | < 50 | < 50 | < 50
17 | Cc1noc(-c2cc(F)c(-c3ccc(C4(C(=O)O)CCOCC4)cc3)cc2F)c1NC(=O)O[C@H](C)c1ccccc1 [IT029] | 50 to 500 | 50 to 500 | < 50
18 | Cc1noc(-c2cc(F)c(-c3ccc(C4(C(=O)O)CCOCC4)cc3)cc2F)c1NC(=O)O[C@H](C)c1ccccc1 [IT030] | > 500 | > 500 | > 500
19 | C[C@@H](OC(=O)Nc1c(-c2ccc(-c3ccc(C4(C(=O)O)CC4)cc3)cc2)sc2ncccc12)c1ccccc1 [IT031] | 50 to 500 | 50 to 500 | < 50
20 | C[C@@H](OC(=O)Nc1c(-c2ccc(-c3ccc(C4(C(=O)O)CC4)cc3)cc2)nc2cnccn12)c1ccccc1 [IT032] | 50 to 500 | 50 to 500 | < 50
21 | C[C@@H](OC(=O)Nc1c(-c2ccc(-c3ccc(C4(C(=O)O)CC4)cc3)cc2)nn2ncccc12)c1ccccc1 [IT033] | 50 to 500 | < 50 | < 50

Row | Compound | IC50 (Human LPA1 [1]) [nM] | EC50 [2] [nM] | EC50 (Human LPA1 [3]) [nM]
22 | Cc1nsc(C#Cc2cc3sc(C4(C(=O)O)CC4)cc3s2)c1NC(=O)O[C@H](C)c1ccccc1 [IT034] | 50 to 500 | 50 to 500 | < 50
23 | C[C@@H](OC(=O)Nc1c(C#Cc2ccc3cc(C4(C(=O)O)CC4)ccc3c2)sc2ncccc12)c1ccccc1 [IT035] | > 500 | 50 to 500 | < 50
24 | Cc1nsc(-c2ccc3cc(-c4ccc(C(=O)O)cc4)ccc3c2)c1NC(=O)O[C@H](C)c1ccccc1 [IT040] | > 500 | > 500 | > 500
25 | Cc1noc(C#Cc2ccc(-c3ccc(C(=O)O)cc3)cc2)c1NC(=O)O[C@H](C)c1ccccc1 [IT081] | – | > 500 | > 500
26 | C[C@@H](OC(=O)Nc1c(C#Cc2cc3sc(C4(C(=O)OCCN5CCOCC5)CC4)cc3s2)cnn1C)c1ccccc1 [IT082] | – | 50 to 500 | 50 to 500
27 | C[C@@H](OC(=O)Nc1c(C#Cc2cc3sc(C4(CO)CC4)cc3s2)cnn1C)c1ccccc1 [IT083] | – | > 500 | > 500
28 | COCCOC(=O)C1(c2cc3sc(C#Cc4cnn(C)c4NC(=O)O[C@H](C)c4ccccc4)cc3s2)CC1 [IT084] | – | 50 to 500 | < 50
29 | CCOC(=O)C1(c2cc3sc(C#Cc4cnn(C)c4NC(=O)O[C@H](C)c4ccccc4)cc3s2)CC1 [IT085] | – | > 500 | < 50
30 | CC(C)OC(=O)C1(c2cc3sc(C#Cc4cnn(C)c4NC(=O)O[C@H](C)c4ccccc4)cc3s2)CC1 [IT086] | – | > 500 | 50 to 500
31 | C[C@@H](OC(=O)Nc1c(C#Cc2cc3sc(C4(C(=O)OCOC(=O)C(C)(C)C)CC4)cc3s2)cnn1C)c1ccccc1 [IT087] | – | < 50 | < 50
32 | COc1ccccc1OC(=O)C1(c2cc3sc(C#Cc4cnn(C)c4NC(=O)O[C@H](C)c4ccccc4)cc3s2)CC1 [IT088] | – | 50 to 500 | < 50
33 | C[C@@H](OC(=O)Nc1c(C#Cc2cc3sc(C4(NS(C)(=O)=O)CC4)cc3s2)cnn1C)c1ccccc1 [IT089] | – | > 500 | > 500
34 | C[C@@H](OC(=O)Nc1c(C#Cc2cc3sc(C4(C(=O)OCC(=O)N(C)C)CC4)cc3s2)cnn1C)c1ccccc1 [IT090] | – | 50 to 500 | < 50
35 | Cc1nsc(-c2ccc(C3CCC(C4(C(=O)O)CC4)CC3)cc2)c1NC(=O)O[C@H](C)c1ccccc1 (stereo partly drawn) [IT091] | – | > 500 | 50 to 500
36 | C[C@@H](OC(=O)Nc1c(C#CC2=CCC(C3(C(=O)O)CC3)CC2)cnn1C)c1ccccc1 (stereo partly drawn) [IT092] | – | > 500 | > 500
37 | Cc1nsc(-c2ccc(C34CCC(C5(C(=O)O)CC5)(CC3)CC4)cc2)c1NC(=O)O[C@H](C)c1ccccc1 [IT093] | – | > 500 | > 500
38 | C[C@@H](OC(=O)Nc1c(-c2ccc(-c3ccc(C4(C(=O)O)CC4)cc3)cc2)cnn1C(F)(F)F)c1ccccc1 [IT094] | – | 50 to 500 | < 50
39 | C[C@@H](OC(=O)Nc1c(C#Cc2nc3sc(C4(C(=O)O)CC4)cc3s2)cnn1C)c1ccccc1 [IT095] | – | < 50 | < 50
40 | C[C@@H](OC(=O)Nc1c(-c2cc(F)c(-c3ccc(C4(C(=O)O)CC4)cc3)cc2F)oc2cnccc12)c1ccccc1 [IT096] | – | 50 to 500 | < 50
41 | C[C@@H](OC(=O)N(C)c1c(C#Cc2cc3sc(C4(C(=O)O)CC4)cc3s2)cnn1C)c1ccccc1 [IT097] | – | > 500 | 50 to 500
42 | C[C@@H](OC(=O)Nc1c(C#Cc2cc3sc(C4(C(=O)NS(C)(=O)=O)CC4)cc3s2)cnn1C)c1ccccc1 [IT098] | – | < 50 | < 50
